From patent publication US20240228481A1, “NOVEL SULFONAMIDE SERIES OF QR2 INHIBITORS TO TACKLE OXIDATIVE STRESS AND COGNITIVE DECLINE” (CARMEL HAIFA UNIVERSITY ECONOMIC CORPORATION LTD., priority 2021, published 2024)
Structures can show the parent of a compound that is named as a salt.

Columns and labels:
C57BL/6 mice = test: Delay fear conditioning after microinjection to CA1; type: in vivo, mouse; details: 5 μM to CA1
Description: Mice were anesthetized under 2% isoflurane, using an induction box (HME109, Highland Medical Equipment). They were placed in a stereotaxic device (Kopf Stereotaxic Alignment System, model 1900) under continuous 1% isoflurane anesthesia. Guide cannulas were implanted bilaterally to CA1 (from bregma: −1.9 mm AP, ±1.4 mm ML, −1.6 mm DV), cemented to the skull and fitted with 28-gauge dummy cannulas extending 0.2 mm beyond the tip of the 1.2 mm guide cannulas. The mice were allowed at least 7 days of recovery before experimentation. The QR2 inhibitor YB-808 was dissolved in DMSO and further diluted in saline to a final DMSO concentration of 0.1%. YB-537 was dissolved in saline (0.9%). A total of 1 μl of 5 μM of either compound or vehicle was infused bilaterally to CA1, via a 28-gauge infusion cannula projecting 0.4 mm (drug delivery depth bregma: −1.6 mm DV) beyond the guide cannula, connected by polyethylene tubing to a 10 μl syringe (Hamilton) over the course of 1 min. The injection cannula was kept for 60 s inside the guide cannula in order prevent osmotic seepage of the doses upward through the cannula tract. Twenty minutes following the injection, animals underwent delay fear conditioning. Following experimentation, animals were sacrificed, brains were excised and sectioned in coronal sections, and cannula implantation was validated by imaging. […]

5×FAD mice [1] = test: Novel object recognition in 5×FAD mice; details: 5×FAD males
Method: Following the first exploration of the open field arena (described above), mice were returned to the same arena the next day, while the arena now contained two identical objects. Mice were allowed to explore the objects and the arena 3 times for 10 min, with an inter trial interval of 10 min. The following day one of the objects was replaced with a novel object, and the mice were returned to the arena and allowed to explore for 10 min. Mouse movement, exploration and nuzzling was automatically recorded with an Ikegami ICD-49E camera with EthoVision 14 (Noldus Information Technology). Discrimination of the novel object was assessed by calculating (time exploring novel object−time exploring familiar object)/(time exploring novel object+time exploring familiar object).

5×FAD mice [2] = test: Weight, drinking rate and wellbeing of 5×FAD mice under treatment in drinking water; details: for average weight: 25 days, drinking water
HCT116 QR2Δ cells = test: H2DCFDA detection of cellular ROS in HCT116 QR2Δ cells; type: cell-based, human; details: 20 μM, 3 h
Description: Additional details of the knockout procedure and corresponding figures have been previously published. Disruption of the NQO2 gene at positions 46 and 108 within exon 4 was done using CRISPR/Cas9 dual nickase (plasmid pSpCas9n(BB)-2A-Puro (PX462), Addgene #48141). The target sequence was selected using a CRISPR design tool (http://crispr.mit.edu/), which identified the guide sequences with the least off-targets. Vectors NQ024_46 and NQ024_108 were produced by cloning oligonucleotides corresponding to guide RNA (sgRNA) into PX462 as previously described. The vectors were then transfected into HCT 116 cells (at 70% confluence) using Lipofectamine 2000 (Life Technologies), and 24 h later 0.7 μg/mL puromycin (Alfa Aesar) was added to the media for 72 h. Cells that survived were then collected and serially diluted into 96 well plates, with puromycin supplemented media, to enable selection and expansion of plasmid containing colonies two weeks later.
The cells were harvested and resuspended in 1% clear medium (DMEM—with no phenol red, supplemented with 1% FBS, 1% L-Glutamine and 1% Penicillin-Streptomycin). […] The plate was then incubated in the dark at 37° C. for 3 h, before reading in a Tecan M200 Pro florescence microplate reader, using wavelengths Ex/Em=485 nm/535 nm.

QR2 = molecular target: T1, QR2 (Homo sapiens, UniProt P16083); test: Cellular thermal shift assay (CETSA) of QR2 in HEK293T cells; type: cell-based; parameters: endogenous in cells; host or cells: HEK293T
T1 sequence (P16083 1-231): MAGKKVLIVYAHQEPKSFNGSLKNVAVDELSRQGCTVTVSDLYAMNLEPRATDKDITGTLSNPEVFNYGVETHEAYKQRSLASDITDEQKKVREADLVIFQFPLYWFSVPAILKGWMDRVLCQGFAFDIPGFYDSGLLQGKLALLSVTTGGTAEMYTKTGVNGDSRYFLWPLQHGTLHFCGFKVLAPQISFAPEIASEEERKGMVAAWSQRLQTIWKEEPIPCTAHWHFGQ
Method: The CETSA assay was performed as described (Miettinen and Björklund, 2014) with some modifications. Briefly, HEK293T cells were trypsinized (Biological Industries), washed in PBS (Sigma-Aldrich), and then suspended in PBS containing protease inhibitor cocktail (Roche). The suspended cells were then divided into two Eppendorf tubes and were treated with either: a compound or DMSO (Sigma-Aldrich) for 1 h at 37° C. under shaking. Following treatment, each sample was divided into PCR tubes (100 μL/tube) and subjected to a temperature gradient (ranging from 63 to 80° C.) for 3 minutes. Cell lysates were obtained by 3-cycles of freeze-thaw using liquid nitrogen and a thermal block set to 25° C. Samples were then centrifuged at 15,000 rpm at 4° C. for 20 min and were subsequently analyzed by western blot targeting QR2 (1:100, Santa Cruz; sc-271665). The isothermal dose response fingerprint (ITDRF) experiments were done using a constant temperature of 73° C. Band intensities were normalized to the highest concentration and superoxide dismutase 1 (SOD1) levels (1:200, Santa Cruz; sc-17767). Analysis of the results were performed according to Jafari et al., (2014) using GraphPad Prism software.
To establish direct target engagement, as well as cell membrane permeability, a cellular thermal shift assay (CETSA) was carried out (see methods), using the leading compounds YB-537, YB-800, and YB-808. Following 1 h preincubation with 5 μM of each of the compounds, or vehicle, thermal aggregation curves (Tagg) of QR2 expressed in HEK293T were measured in increasing temperatures. […] Based on the Tagg curves, the inventors selected 73° C. for isothermal dose-response fingerprint (IDTRF) experiments (FIG. 2B).

SMILES: Cc1ccc(-c2cn3cccc(C)c3n2)cc1S(=O)(=O)N1CCNCC1 [YB-537, 8-methyl-2-(4-methyl-3-(piperazin-1-ylsulfonyl)phenyl)imidazo[1,2-a]pyridine hydrochloride]
- baseline freezing (C57BL/6 mice): 3.595±1.244%
- novel object discrimination (5×FAD mice [1]): 0.06432±0.1285
- adverse effects during month-long treatment (5×FAD mice [2]; 5×FAD both sexes, 50 mg/kg in drinking water): no adverse effects were seen
- average drinking rate (5×FAD mice [2]; 5×FAD females): 0.170 ± 0.011 mL/g/day
- average weight (5×FAD mice [2]; 5×FAD females): 22.76 ± 0.192 g
- average drinking rate (5×FAD mice [2]; 5×FAD males): 0.170 ± 0.035 mL/g/day
- average weight (5×FAD mice [2]; 5×FAD males): 32.56 ± 0.279 g

SMILES: Cc1cccn2cc(-c3cccc(S(=O)(=O)N4CCC(C)CC4)c3)nc12 [YB-800]
- baseline ROS levels (HCT116 QR2Δ cells): −0.009±0.049 AU
- thermal stability of QR2 (thermal aggregation curve) versus vehicle (QR2; 5 μM, 1 h preincubation): shifts of thermal stability
- EC50 (QR2; CETSA at 73° C., read-out: EC50 of QR2 stabilization (isothermal dose-response fingerprint)): 0.034 µM
